Reference: ChEMBL document CHEMBL5291721, “A preclinical secondary pharmacology resource illuminates target-adverse drug reaction associations of marketed drugs” (Nat Commun, 2023)

What was measured:
[1] = target: T1, Muscarinic acetylcholine receptor M2 (Homo sapiens, UniProt P08172)
T1 sequence (P08172 whole entry): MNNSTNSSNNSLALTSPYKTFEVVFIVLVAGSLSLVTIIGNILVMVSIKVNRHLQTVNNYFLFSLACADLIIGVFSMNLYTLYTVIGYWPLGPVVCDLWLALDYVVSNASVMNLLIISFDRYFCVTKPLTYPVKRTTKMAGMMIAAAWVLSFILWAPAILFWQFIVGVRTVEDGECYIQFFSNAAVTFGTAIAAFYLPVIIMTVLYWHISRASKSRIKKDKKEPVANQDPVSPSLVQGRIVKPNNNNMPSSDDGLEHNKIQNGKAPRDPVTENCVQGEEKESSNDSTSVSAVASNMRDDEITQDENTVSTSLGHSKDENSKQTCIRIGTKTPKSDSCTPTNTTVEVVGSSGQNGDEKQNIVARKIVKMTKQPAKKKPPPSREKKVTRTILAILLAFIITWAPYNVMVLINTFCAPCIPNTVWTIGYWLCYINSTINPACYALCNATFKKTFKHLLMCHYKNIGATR

[2] = target: Neurotensin receptor type 1 (Homo sapiens, UniProt P30989)
Neurotensin receptor type 1, sequence (P30989 whole entry): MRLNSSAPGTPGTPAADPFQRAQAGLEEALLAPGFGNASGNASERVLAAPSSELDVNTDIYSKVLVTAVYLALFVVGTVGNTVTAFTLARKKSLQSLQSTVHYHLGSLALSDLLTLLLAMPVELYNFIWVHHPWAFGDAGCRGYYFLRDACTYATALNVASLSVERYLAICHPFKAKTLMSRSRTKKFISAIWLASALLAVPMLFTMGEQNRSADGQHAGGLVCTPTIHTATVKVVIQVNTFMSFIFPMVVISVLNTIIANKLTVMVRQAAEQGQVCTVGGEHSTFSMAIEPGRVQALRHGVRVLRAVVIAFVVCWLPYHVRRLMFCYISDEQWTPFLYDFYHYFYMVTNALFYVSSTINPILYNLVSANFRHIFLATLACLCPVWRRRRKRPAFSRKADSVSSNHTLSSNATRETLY

[3] = target: T2, Gastric inhibitory polypeptide receptor (Homo sapiens, UniProt P48546)
T2 sequence (P48546 whole entry): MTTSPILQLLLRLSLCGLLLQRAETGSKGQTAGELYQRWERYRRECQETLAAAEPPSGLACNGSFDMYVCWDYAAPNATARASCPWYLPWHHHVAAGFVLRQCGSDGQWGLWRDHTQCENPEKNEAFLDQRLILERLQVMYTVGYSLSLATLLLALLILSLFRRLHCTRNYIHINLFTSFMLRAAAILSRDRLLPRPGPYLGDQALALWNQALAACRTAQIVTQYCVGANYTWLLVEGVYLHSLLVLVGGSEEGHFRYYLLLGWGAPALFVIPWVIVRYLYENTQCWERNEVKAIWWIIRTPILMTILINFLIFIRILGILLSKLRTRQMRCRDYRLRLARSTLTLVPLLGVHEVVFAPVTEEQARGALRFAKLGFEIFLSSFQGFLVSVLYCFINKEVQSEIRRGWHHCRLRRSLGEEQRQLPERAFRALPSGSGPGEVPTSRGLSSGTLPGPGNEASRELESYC

[4] = target: T3, Corticotropin-releasing factor receptor 1 (Homo sapiens, UniProt P34998)
T3 sequence (P34998 whole entry): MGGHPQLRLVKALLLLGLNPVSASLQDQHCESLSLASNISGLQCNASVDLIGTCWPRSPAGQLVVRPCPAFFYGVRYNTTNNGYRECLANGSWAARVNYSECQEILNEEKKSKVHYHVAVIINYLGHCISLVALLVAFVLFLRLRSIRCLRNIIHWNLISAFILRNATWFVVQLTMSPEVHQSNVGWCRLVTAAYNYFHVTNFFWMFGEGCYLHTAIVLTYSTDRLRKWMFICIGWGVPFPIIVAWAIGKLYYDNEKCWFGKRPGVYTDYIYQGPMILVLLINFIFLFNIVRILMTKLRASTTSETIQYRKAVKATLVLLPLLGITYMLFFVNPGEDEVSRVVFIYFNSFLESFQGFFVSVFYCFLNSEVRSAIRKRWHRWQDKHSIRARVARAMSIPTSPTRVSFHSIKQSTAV

[5] = target: Sodium channel protein type 5 subunit alpha (Homo sapiens, UniProt Q14524); assay type: functional, cell-based
Sodium channel protein type 5 subunit alpha, sequence (Q14524 whole entry): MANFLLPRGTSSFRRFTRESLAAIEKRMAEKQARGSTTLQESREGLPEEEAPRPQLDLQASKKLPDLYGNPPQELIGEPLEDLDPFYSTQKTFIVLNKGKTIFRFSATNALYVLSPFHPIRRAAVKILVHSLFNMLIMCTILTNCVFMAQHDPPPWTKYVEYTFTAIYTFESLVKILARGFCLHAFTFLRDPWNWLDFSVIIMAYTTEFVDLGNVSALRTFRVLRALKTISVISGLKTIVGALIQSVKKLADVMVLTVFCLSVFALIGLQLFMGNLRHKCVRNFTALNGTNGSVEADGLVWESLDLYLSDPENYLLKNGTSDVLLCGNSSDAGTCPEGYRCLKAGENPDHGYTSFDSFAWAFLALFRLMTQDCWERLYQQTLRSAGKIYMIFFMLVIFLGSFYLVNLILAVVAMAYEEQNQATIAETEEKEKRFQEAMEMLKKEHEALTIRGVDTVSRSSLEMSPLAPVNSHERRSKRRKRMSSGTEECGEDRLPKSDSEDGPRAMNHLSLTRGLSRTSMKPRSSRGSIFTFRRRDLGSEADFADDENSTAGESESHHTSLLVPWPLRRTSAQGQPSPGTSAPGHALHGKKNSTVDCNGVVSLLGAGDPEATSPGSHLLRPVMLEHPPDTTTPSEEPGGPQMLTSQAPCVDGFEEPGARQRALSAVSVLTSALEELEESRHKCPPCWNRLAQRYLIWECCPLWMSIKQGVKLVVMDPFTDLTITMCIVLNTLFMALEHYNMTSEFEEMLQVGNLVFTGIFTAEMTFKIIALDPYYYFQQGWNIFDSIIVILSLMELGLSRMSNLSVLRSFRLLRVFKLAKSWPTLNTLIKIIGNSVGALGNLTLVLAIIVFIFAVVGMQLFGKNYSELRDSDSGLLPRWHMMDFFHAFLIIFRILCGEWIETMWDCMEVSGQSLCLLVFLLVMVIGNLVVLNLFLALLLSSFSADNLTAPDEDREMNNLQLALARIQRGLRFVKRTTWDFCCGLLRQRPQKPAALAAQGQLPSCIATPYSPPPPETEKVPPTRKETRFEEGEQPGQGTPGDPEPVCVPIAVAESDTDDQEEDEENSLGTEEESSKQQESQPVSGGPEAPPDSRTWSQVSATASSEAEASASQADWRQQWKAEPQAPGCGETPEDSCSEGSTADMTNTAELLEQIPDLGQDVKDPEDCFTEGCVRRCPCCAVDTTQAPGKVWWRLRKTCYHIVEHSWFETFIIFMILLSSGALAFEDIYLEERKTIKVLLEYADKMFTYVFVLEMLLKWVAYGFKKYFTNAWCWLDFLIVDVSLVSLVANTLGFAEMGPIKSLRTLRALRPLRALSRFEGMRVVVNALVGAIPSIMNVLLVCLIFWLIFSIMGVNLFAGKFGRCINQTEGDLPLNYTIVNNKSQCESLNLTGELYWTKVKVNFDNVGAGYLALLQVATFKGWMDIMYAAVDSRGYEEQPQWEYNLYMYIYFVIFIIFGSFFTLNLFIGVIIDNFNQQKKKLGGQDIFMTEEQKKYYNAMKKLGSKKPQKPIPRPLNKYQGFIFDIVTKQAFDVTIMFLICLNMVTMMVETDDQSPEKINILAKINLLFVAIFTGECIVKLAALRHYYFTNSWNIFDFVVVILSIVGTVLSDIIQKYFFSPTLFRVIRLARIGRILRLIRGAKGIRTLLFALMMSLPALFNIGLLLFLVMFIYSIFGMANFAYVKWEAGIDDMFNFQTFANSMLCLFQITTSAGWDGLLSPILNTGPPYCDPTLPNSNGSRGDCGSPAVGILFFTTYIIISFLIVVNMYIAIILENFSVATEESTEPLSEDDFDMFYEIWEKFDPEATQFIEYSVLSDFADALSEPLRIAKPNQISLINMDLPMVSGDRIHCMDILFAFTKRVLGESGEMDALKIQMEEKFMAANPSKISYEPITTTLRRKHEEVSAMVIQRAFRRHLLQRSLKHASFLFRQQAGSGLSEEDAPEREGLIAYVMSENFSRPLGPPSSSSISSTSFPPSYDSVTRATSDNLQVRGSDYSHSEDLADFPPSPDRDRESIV

[6] = target: Glucagon receptor (Homo sapiens, UniProt P47871)
Glucagon receptor, sequence (P47871 whole entry): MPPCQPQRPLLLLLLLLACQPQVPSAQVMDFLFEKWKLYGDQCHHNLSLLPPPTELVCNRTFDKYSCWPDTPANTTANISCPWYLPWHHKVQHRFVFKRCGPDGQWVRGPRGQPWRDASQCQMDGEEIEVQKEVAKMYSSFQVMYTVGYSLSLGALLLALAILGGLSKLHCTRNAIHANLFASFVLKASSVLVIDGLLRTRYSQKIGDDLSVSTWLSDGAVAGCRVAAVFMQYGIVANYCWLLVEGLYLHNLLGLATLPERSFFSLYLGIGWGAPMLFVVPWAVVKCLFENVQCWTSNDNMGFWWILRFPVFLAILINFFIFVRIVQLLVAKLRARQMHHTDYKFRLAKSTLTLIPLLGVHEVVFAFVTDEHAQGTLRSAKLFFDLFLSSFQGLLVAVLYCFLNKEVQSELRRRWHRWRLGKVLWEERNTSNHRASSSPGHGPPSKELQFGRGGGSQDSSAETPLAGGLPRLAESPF

[7] = target: T4, Thromboxane A2 receptor (Homo sapiens, UniProt P21731); assay type: functional, cell-based
T4 sequence (P21731 whole entry): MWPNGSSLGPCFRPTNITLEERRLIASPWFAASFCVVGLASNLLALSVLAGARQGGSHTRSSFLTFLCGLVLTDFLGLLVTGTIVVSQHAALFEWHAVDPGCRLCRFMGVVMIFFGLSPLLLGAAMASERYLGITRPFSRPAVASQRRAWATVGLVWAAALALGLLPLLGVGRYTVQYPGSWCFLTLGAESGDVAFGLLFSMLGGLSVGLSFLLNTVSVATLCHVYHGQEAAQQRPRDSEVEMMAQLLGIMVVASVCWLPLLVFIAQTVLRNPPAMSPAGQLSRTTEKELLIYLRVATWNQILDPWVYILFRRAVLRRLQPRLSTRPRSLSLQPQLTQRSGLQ

[8] = target: T5, Progesterone receptor (Homo sapiens, UniProt P06401)
T5 sequence (P06401 whole entry): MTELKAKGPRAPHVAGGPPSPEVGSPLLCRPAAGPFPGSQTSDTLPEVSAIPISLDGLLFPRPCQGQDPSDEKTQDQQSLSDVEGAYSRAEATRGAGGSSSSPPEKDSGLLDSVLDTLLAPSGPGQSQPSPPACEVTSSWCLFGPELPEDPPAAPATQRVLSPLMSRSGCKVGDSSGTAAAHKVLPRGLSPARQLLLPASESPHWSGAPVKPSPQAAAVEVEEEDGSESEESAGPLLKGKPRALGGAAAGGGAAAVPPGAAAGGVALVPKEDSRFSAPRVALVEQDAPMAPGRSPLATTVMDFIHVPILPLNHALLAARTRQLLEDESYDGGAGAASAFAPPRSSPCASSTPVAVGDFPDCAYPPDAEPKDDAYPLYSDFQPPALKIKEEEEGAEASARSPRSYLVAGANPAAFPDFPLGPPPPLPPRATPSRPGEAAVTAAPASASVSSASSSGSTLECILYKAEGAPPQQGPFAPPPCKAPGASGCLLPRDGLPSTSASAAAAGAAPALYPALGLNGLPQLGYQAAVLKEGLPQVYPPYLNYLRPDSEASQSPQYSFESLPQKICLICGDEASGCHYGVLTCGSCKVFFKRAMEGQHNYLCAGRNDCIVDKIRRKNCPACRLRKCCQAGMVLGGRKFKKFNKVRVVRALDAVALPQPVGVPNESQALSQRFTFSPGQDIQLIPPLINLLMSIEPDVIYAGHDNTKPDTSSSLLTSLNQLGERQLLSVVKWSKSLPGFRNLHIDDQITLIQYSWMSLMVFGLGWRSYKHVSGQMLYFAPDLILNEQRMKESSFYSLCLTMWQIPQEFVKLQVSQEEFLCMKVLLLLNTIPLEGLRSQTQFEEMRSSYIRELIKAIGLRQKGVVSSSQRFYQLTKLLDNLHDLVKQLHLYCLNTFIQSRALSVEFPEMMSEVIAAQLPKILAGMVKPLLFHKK

[9] = target: T1, Muscarinic acetylcholine receptor M2; remark: listed apart in the source
[10] = target: cGMP-inhibited 3',5'-cyclic phosphodiesterase 3A (Homo sapiens, UniProt Q14432); assay type: functional
cGMP-inhibited 3',5'-cyclic phosphodiesterase 3A, sequence (Q14432 whole entry): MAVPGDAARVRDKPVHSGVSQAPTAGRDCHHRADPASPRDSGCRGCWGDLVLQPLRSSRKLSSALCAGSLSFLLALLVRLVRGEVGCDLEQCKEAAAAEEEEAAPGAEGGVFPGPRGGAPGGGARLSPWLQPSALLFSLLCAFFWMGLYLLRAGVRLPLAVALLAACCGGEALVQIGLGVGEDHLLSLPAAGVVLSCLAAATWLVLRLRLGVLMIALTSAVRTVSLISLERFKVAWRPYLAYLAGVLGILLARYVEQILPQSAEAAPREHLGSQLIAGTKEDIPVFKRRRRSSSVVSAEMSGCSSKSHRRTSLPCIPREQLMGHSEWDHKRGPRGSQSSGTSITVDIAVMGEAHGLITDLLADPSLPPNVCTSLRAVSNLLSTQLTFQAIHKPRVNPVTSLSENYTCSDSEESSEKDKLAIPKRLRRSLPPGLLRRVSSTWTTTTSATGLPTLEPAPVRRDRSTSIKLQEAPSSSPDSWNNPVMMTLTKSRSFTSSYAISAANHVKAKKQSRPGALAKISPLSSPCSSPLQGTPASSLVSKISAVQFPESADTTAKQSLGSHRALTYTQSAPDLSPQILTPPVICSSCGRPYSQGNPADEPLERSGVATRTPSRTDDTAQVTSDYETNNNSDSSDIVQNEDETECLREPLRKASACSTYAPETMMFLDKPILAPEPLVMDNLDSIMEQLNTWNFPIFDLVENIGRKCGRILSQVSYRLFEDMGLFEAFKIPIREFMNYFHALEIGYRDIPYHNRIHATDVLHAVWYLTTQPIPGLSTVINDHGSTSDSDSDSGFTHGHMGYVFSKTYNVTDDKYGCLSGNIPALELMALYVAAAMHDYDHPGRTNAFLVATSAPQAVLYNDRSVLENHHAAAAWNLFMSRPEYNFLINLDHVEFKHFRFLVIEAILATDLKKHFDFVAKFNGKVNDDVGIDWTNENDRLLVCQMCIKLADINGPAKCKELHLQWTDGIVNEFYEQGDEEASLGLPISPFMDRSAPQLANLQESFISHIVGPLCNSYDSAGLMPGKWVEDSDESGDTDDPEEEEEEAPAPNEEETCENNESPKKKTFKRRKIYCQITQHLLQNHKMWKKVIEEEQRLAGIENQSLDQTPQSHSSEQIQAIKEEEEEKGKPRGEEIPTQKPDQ

[11] = target: Histamine H3 receptor (Homo sapiens, UniProt Q9Y5N1)
Histamine H3 receptor, sequence (Q9Y5N1 whole entry): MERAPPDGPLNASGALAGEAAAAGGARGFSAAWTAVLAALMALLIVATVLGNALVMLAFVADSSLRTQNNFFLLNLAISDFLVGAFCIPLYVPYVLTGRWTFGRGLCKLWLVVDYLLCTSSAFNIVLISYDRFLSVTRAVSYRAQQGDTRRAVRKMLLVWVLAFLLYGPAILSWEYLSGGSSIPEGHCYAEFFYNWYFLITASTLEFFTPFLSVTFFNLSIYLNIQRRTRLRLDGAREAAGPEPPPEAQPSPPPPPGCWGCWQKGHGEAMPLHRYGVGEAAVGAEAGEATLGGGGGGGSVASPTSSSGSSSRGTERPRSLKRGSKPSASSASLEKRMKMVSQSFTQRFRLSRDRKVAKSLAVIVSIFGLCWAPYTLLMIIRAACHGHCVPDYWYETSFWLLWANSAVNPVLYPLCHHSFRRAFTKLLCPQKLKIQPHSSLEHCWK
Note: assay procedure not described here.

| Molecule | AC50 [1] [µM] | AC50 [2] [µM] | AC50 [3] [µM] | AC50 [4] [µM] | AC50 [5] [µM] | AC50 [6] [µM] | AC50 [7] [µM] | AC50 [8] [µM] | AC50 [9] [µM] | AC50 [10] [µM] | AC50 [11] [µM] |
| --- | --- | --- | --- | --- | --- | --- | --- | --- | --- | --- | --- |
| Clc1ccccc1C(c1ccccc1)(c1ccccc1)n1ccnc1 [CLOTRIMAZOLE] | > 10 | – | – | – | – | – | – | – | – | – | – |
| Cc1c(OCC(F)(F)F)ccnc1C[S+]([O-])c1nc2ccccc2[nH]1 (configuration not stated) [LANSOPRAZOLE] | – | > 30 | > 30 | > 30 | > 30 | > 30 | – | – | – | – | – |
| CO[C@]12C[C@@H](COC(=O)c3cncc(Br)c3)CN(C)[C@@H]1Cc1cn(C)c3cccc2c13 [NICERGOLINE] | – | – | – | – | – | – | > 30 | > 30 | 7.93 | > 30 | 7.91 |
| CC/C(=C(\c1ccccc1)c1ccc(OCCN(C)C)cc1)c1ccccc1 [TAMOXIFEN] | > 10 | – | – | – | – | – | – | – | – | – | – |
| COc1cccc(C2(O)CCCCC2CN(C)C)c1 (configuration not stated) [TRAMADOL] | – | > 30 | > 30 | > 30 | – | > 30 | – | – | – | – | – |
| THIMEROSAL | – | – | – | – | > 50 | – | > 30 | > 30 | > 30 | > 30 | > 30 |
